What was measured:
Type in all cases: in vivo, human
subjects with PFIC [1] = experiment: ItchRO(Obs) pruritus severity, MARCH-PFIC Phase 3 study; settings: for percentage of pruritus response (ItchRO(Obs) responders): Week 15 to Week 26
Protocol: The primary analysis was conducted in the intent-to-treat (ITT) population of subjects with documented biallelic mutations in ABCB11 (PFIC 2), based on standard-of-care genotyping (primary cohort criteria). Subjects with a predicted complete absence of bile salt excretion pump (BSEP) function based on the type of ABCB11 mutation (PFIC 2), as determined by a standard-of-care genotype, were excluded from the primary cohort and could enroll only in the supplemental cohort. Subjects with other PFIC subtypes (e.g., PFIC 1/3/4/5/6, or new PFIC mutation variants) or postsurgical subjects (e.g., after internal or external biliary diversion surgery or subjects with reversal of biliary diversion surgery) were enrolled in a separate supplemental cohort and evaluated as part of secondary and exploratory analyses.
Subjects in the primary cohort were randomized in a 1:1 ratio to receive maralixibat or placebo. Subjects in the supplemental cohort were randomized in a 1:1 ratio to receive maralixibat or placebo within the following subcohorts: a) PFIC 1; b) PFIC 3; c) all other supplemental cohort subjects. All subjects received study treatment in addition to standard-of-care therapy, including antipruritic concomitant treatment.
For subjects assigned to maralixibat, the Dose Escalation period consisted of the following weekly steps: Dose level 1, 150 μg/kg maralixibat BID for 1 week; Dose level 2, 300 μg/kg maralixibat BID for 1 week; Dose level 3, 450 μg/kg maralixibat BID for 1 week; Dose level 4, 600 μg/kg maralixibat BID for the remaining duration of the study.
Efficacy. Severity of pruritus was assessed using the Itch caregiver/patient reported outcome measure (ItchRO™) administered as a twice daily electronic diary. Caregivers for all subjects completed the Observer instrument: ItchRO(Obs). The ItchRO(Obs) was completed by the same caregiver for consistency, whenever possible. Only subjects ≥9 years of age at screening completed the patient instrument: ItchRO(Pt). […] Pruritus was assessed and recorded twice daily, via ItchRO, beginning with the day after the screening visit and every day throughout the duration of the study. The severity of pruritus was measured by the completion of the first question in the ItchRO(Obs) (how severe were your child's itch-related symptoms) or ItchRO(Pt) (how itchy did you feel). The frequency of pruritus was measured by completion of the third question in the ItchRO(Obs) (how much of the time was your child rubbing or scratching) or ItchRO(Pt) (how much of last night/today did feeling itchy make you rub or scratch). Caregivers and subjects rated the severity and frequency of pruritus using 5 choices to describe their itching condition. ItchRO(Pt) and ItchRO(Obs) have been previously described in Kamath, et al., “Development of a Novel Tool to Assess the Impact of Itching in Pediatric Cholestasis,” Patient, 11:69-82 (2018), which is hereby incorporated by reference in its entirety for all purposes.
For this study, the primary estimand is the improvement in pruritus measured as change from baseline in the average morning ItchRO(Obs) severity score in the maralixibat treatment group relative to the placebo group. The primary analysis on the primary efficacy endpoint was conducted in 1) participants with PFIC 2 who fulfill criteria for the primary cohort in the ITT population (non-truncated primary “B SEP cohort” or “Primary cohort” with N=31), 2) all PFIC participants (excluding the participants with prior history of surgery, heterozygous participants and unknown types, “All PFIC cohort” or “PFIC cohort” with N=64), and 3) all study participants cohort, including the participants with prior history of surgery, heterozygous participants and unknown types. A restricted maximum likelihood (REML)-based mixed-effects model for repeated measures […] was used as the primary analysis method. […]

patients with PFIC = experiment: TEAEs, MARCH-ON long-term extension
Protocol: Eighty-five patients from MARCH trial enrolled in MARCH-ON (Table 10, FIG. 29A). Forty-seven patients had received Maralixibat (MRX-MRX) and 38 had received placebo (PBO-MRX) during MARCH trial.
Methods: Long-term maintenance of response was assessed for patients who were originally randomized to receive MRX in MARCH and continued with treatment in MARCH-ON (MRX-MRX group; n=33). MRX response was assessed for patients who received PBO in the MARCH study and switched to open-label MRX in MARCH-ON (PBO-MRX group; n=24). Assessments included: pruritus measured by 0-4 scale of ItchRO[Obs], sBA, bilirubin, and growth z-scores, as well as incidence of treatment-emergent adverse events(TEAEs). Baseline (BL) was defined as the start of MRX for each group.

subjects with PFIC [2] = experiment: Clinical laboratory evaluations (ALT/transaminases, INR, vitamins A, D, E), MARCH-PFIC Phase 3 study
From the text: Clinical Laboratory Evaluations.
For subjects with a confirmed increase in ALT or TSB level, meeting the close monitoring criteria, the following investigations were considered, as clinically indicated: 1) Close and frequent monitoring of liver enzyme and serum bilirubin tests as clinically indicated; 2) Symptoms as well as prior, current, and intercurrent diseases/illnesses; 3) Use of or recent change in use of concomitant treatment (including non-prescription medications, herbal and dietary supplement preparations), alcohol use, recreational drug use, and special diets; 4) History for exposure to environmental chemical agents and travel; 5) Serology for viral hepatitis (HAV IgM, HBsAg, HCV antibody, HCVRNA, CMV IgM, and EBV antibody panel); 6) Serology for autoimmune hepatitis (e.g., antinuclear antibody [ANA]); 7) AST, creatine phosphokinase (CPK), and lactate dehydrogenase (LDH); 8) CBC with differential blood count (eosinophils); 9) Reticulocyte count, PT/INR.

[3] = All PFIC cohort, Weeks 15-26, FIG. 6B
[4] = BSEP deficiency cohort, FIG. 7A
[5] = BSEP deficiency cohort, FIG. 7B
[6] = BSEP deficiency cohort, FIG. 17A
[7] = BSEP deficiency cohort, Weeks 15-26, FIG. 6A

For `CCCCC1(CCCC)CS(=O)(=O)c2ccc(N(C)C)cc2[C@@H](c2ccc(OCc3ccc(C[N+]45CCN(CC4)CC5)cc3)cc2)[C@H]1O` [maralixibat, 1-(4-((4-((4R,5R)-3,3-dibutyl-7-(dimethylamino)-4-hydroxy-1,1-dioxido-2,3,4,5-tetrahydrobenzo[b]thiepin-5-yl)phenoxy)methyl)benzyl)-1,4-diazabicyclo[2.2.2]octan-1-ium], the “difference from the placebo group, evening ItchRO[Obs] score” value (subjects with PFIC [1]; All PFIC cohort, FIG. 8A) was 1.157 point, the “reduction from baseline in pruritus evening ItchRO[Obs] score” value (subjects with PFIC [1]; All PFIC cohort, FIG. 8A) was 1.8 points and the “difference from the placebo group, maximum daily ItchRO[Obs] score” value (subjects with PFIC [1]; All PFIC cohort, FIG. 8B) was 1.198 point. For the same compound, the “reduction from baseline in maximum pruritus daily ItchRO[Obs] score” value (subjects with PFIC [1]; All PFIC cohort, FIG. 8B) was 1.9 points, the “percentage of pruritus response (ItchRO(Obs) responders)” value (subjects with PFIC [1]; All PFIC cohort, FIG. 14A) was 63.6% and the “difference from the placebo group, morning ItchRO[Obs] score” value (shortened to “difference … morning ItchRO[Obs] score”) (subjects with PFIC [1]; [3]) was 1.20 point. The “reduction from baseline in pruritus morning ItchRO[Obs] score” value (subjects with PFIC [1]; [3]) was 1.8 points, the “median proportion of reported days with an ItchRO(Obs) score of 0-1” value (subjects with PFIC [1]; All-PFIC (MRX n = 33), Weeks 15-26) was 95% and the “difference from the placebo group, evening ItchRO[Obs] score” value (subjects with PFIC [1]; [4]) was 1.111 point. The “reduction from baseline in pruritus evening ItchRO[Obs] score” value (subjects with PFIC [1]; [4]) was 1.7 points, the “difference from the placebo group, maximum daily ItchRO[Obs] score” value (subjects with PFIC [1]; [5]) was 1.130 point and the “reduction from baseline in maximum pruritus daily ItchRO[Obs] score” value (subjects with PFIC [1]; [5]) was 1.8 points. For the same compound, the “difference vs placebo in proportion of pruritus responders (assessments ≤1)” value (subjects with PFIC [1]; BSEP deficiency cohort, FIG. 16A) was 0.344, the “difference vs placebo in proportion of pruritus responders (assessments ≤1 or decrease ≥1)” value (subjects with PFIC [1]; [6]) was 0.398 and the “proportion of pruritus responders: proportion of assessments ≤1 or decrease ≥1” value (subjects with PFIC [1]; [6]) was “over 0.7”. The “percentage of pruritus response (ItchRO(Obs) responders)” value (subjects with PFIC [1]; BSEP deficiency cohort, FIG. 13A) was 57.1%, the “difference … morning ItchRO[Obs] score” value (subjects with PFIC [1]; [7]) was 1.089 point and the “reduction from baseline in pruritus morning ItchRO[Obs] score” value (subjects with PFIC [1]; [7]) was 1.7 points. For the same compound, the “proportion of pruritus responders: proportion of assessments ≤1” value (subjects with PFIC [1]; BSEP deficiency cohort, morning and evening, FIG. 16A) was “over 0.6”, the “difference … morning ItchRO[Obs] score” value (subjects with PFIC [1]; FIC1 (PFIC 1) cohort, FIG. 9A) was 1.136 point and the “reduction from baseline in pruritus morning ItchRO[Obs] score” value (subjects with PFIC [1]; FIC1 (PFIC 1) cohort, FIG. 9A) was 1.4 points. For the same compound, the “improvements in pruritus (weekly ItchRO(Obs) score)” value (subjects with PFIC [1]; FIC1, MDR3, TJP2, MYO5B cohorts, FIG. 33A-B) was “statistically significant and clinically meaningful improvements”, the “difference … morning ItchRO[Obs] score” value (subjects with PFIC [1]; MDR3 (PFIC 3) cohort, FIG. 9B) was 0.594 point and the “reduction from baseline in pruritus morning ItchRO[Obs] score” value (subjects with PFIC [1]; MDR3 (PFIC 3) cohort, FIG. 9B) was 1.8 points. For the same compound, the “difference vs placebo in proportion of pruritus responders (assessments ≤1)” value (subjects with PFIC [1]; PFIC cohort, Baseline to Week 26, FIG. 16B, 27B) was 0.345, the “difference vs placebo in proportion of pruritus responders (assessments ≤1 or decrease ≥1)” value (subjects with PFIC [1]; PFIC cohort, FIG. 17B) was 0.380 and the “proportion of pruritus responders: proportion of assessments ≤1 or decrease ≥1” value (subjects with PFIC [1]; PFIC cohort, FIG. 17B) was “over 0.7”. For the same compound, the response to treatment (subjects with PFIC [1]; PFIC patients post surgery (full population)) was “significant response”, the “improvements in pruritus severity” value (subjects with PFIC [1]; full-study population, FIG. 35A) was “statistically significant and clinically meaningful improvements” and the improvements in pruritus (subjects with PFIC [1]; patients with no-variant found, FIG. 35C) was “demonstrated improvements”. The “pruritus change in individual t-BSEP patients (morning ItchRO(Obs))” value (subjects with PFIC [1]; t-BSEP (truncated PFIC2) patients, Baseline to Week 26, FIG. 41D) was “limited improvement in pruritus”, the “Any TEAE, %” value (patients with PFIC; MRX-MRX (n = 47)) was “(1M)” and the “Most common TEAE: diarrhoea, %” value (patients with PFIC; MRX-MRX (n = 47)) was “(63.8) %”. The “Serious TEAE, %” value (patients with PFIC; MRX-MRX (n = 47)) was “(17.0) %”, the “Severe TEAE, %” value (patients with PFIC; MRX-MRX (n = 47)) was “(10.6) %” and the “TEAE leading to death, %” value (patients with PFIC; MRX-MRX (n = 47)) was “(2.1) %”. The “TEAE leading to discontinuation, %” value (patients with PFIC; MRX-MRX (n = 47)) was “(6.4) %”, the “Any TEAE, %” value (patients with PFIC; PBO-MRX (n = 38)) was “(92.1) %” and the “Most common TEAE: diarrhoea, %” value (patients with PFIC; PBO-MRX (n = 38)) was “(34.2) %”. For the same compound, the “Serious TEAE, %” value (patients with PFIC; PBO-MRX (n = 38)) was “(15.0) %”, the “Severe TEAE, %” value (patients with PFIC; PBO-MRX (n = 38)) was “(5.3) %” and the “early onset of diarrhea (most frequent TEAE)” value (patients with PFIC; overall) was 51%. The new safety signals (patients with PFIC; overall) was “no new safety signals”, the “changes in serum ALT” value (subjects with PFIC [2]; All-PFIC Cohort, FIG. 26A-B) was “No significant changes” and the “changes from baseline in transaminase levels” value (subjects with PFIC [2]; MARCH, either group) was “no clinically meaningful changes”. For the same compound, the “changes from baseline in serum levels of vitamins A, D, and E” value (subjects with PFIC [2]; MARCH, under regular FSV supplementation) was “No clinically meaningful changes” and the “International normalized ratio (INR), mean change from Baseline” value (subjects with PFIC [2]; MARCH, week 26) was −0.3.

Reference: patent US20240173317A1, “METHODS FOR TREATING PROGRESSIVE FAMILIAL INTRAHEPATIC CHOLESTASIS” (MIRUM PHARMACEUTICALS, INC., priority 2022, published 2024)
